Assay results published in ChEMBL document CHEMBL1156511, “Suppressor mutations in the transmembrane segments of P-glycoprotein promote maturation of processing mutants and disrupt a subset of drug-binding sites” (J Biol Chem, 2007).
Calls of active or inactive are those of the source. The calls are words filed in the database; no cut-off is given here.

Tests used:
Type in all cases: cell-based
[1] = biological target: ATP-dependent translocase ABCB1 (Homo sapiens, UniProt P08183, Q195C); assay: Increase in ATPase activity of human histidine-tagged Pgp TM3 Q195C mutant expressed in HEK293 cells at 2 mM relative to control; conditions: hek293, 2000 µM
Sequence of ATP-dependent translocase ABCB1 (Homo sapiens, UniProt P08183, Q195C) (P08183 whole entry Q195C): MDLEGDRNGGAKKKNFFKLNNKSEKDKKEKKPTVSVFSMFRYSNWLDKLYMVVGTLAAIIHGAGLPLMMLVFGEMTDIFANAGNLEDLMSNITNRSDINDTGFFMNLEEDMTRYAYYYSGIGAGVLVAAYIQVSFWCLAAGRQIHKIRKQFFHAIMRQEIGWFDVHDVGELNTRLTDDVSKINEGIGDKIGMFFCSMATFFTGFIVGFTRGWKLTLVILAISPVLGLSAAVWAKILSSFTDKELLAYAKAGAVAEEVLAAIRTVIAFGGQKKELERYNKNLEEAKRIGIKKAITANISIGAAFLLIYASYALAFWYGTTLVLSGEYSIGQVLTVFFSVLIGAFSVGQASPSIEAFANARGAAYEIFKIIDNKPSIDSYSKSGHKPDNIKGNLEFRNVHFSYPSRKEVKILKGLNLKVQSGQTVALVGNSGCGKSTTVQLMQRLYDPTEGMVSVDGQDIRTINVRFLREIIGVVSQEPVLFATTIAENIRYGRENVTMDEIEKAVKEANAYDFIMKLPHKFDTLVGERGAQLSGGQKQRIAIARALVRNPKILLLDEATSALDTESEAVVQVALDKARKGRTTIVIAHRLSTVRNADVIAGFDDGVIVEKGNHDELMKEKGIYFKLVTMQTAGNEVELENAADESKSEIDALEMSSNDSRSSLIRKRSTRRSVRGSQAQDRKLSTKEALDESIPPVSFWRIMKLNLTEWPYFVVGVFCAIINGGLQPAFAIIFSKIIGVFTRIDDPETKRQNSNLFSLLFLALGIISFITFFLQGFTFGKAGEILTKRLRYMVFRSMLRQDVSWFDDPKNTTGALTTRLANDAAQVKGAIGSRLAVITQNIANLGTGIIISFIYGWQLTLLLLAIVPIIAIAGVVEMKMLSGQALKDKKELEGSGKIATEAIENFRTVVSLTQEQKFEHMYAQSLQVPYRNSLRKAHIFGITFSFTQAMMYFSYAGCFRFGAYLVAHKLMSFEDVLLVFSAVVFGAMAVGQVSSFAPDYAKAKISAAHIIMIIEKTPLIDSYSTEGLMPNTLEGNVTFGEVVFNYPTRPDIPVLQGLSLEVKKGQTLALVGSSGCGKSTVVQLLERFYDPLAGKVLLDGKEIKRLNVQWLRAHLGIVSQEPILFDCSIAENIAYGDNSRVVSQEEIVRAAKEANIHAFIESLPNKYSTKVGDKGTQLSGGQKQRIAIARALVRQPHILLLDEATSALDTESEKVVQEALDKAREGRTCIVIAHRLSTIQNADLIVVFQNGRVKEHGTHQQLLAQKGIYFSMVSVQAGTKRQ

[2] = biological target: ATP-dependent translocase ABCB1 (Homo sapiens, UniProt P08183, F728C/L339C/T199R); assay: Inhibition of cross-linking of human Pgp TM3 T199R/TM6 L339C/TM7 F728C mutant expressed in HEK293 cells assessed as drug level causing 50% inhibition of cross linking by immunoblot; conditions: read-out: Activity
[3] = biological target: ATP-dependent translocase ABCB1 (Homo sapiens, UniProt P08183, F343R/F728C/L339C); assay: Inhibition of cross-linking of human Pgp TM6 F343R/TM6 L339C/TM7 F728C mutant expressed in HEK293 cells assessed as drug level causing 50% inhibition of cross linking by immunoblot; conditions: read-out: Activity
[4] = biological target: ATP-dependent translocase ABCB1 (Homo sapiens, UniProt P08183, F728C/I306R/L339C); assay: Inhibition of cross-linking of human Pgp TM5 I306R/TM6 L339C/TM7 F728C mutant expressed in HEK293 cells assessed as drug level causing 50% inhibition of cross linking by immunoblot; conditions: read-out: Activity
HEK293 [5] = assay: Inhibition of cross-linking of human Pgp TM6 L339C/TM7 F728C mutant expressed in HEK293 cells assessed as drug level causing 50% inhibition of cross linking by immunoblot
HEK293 [6] = assay: Inhibition of cross-linking of human Pgp TM1 L65R/TM6 L339C/TM7 F728 mutant expressed in HEK293 cells assessed as drug level causing 50% inhibition of cross linking by immunoblot
HEK293 [7] = assay: Activation of ATPase activity of human Pgp TM7 Cys728 mutant expressed in HEK293 cells at 3 mM relative to control
[8] = biological target: ATP-dependent translocase ABCB1 (Homo sapiens, UniProt P08183, F200C); assay: Increase in ATPase activity of human histidine-tagged Pgp TM3 F200C mutant expressed in HEK293 cells at 2 mM relative to control; conditions: hek293, 2000 µM
[9] = biological target: ATP-dependent translocase ABCB1 (Homo sapiens, UniProt P08183, S196C); assay: Increase in ATPase activity of human histidine-tagged Pgp TM3 S196C mutant expressed in HEK293 cells at 2 mM relative to control; conditions: hek293, 2000 µM
[10] = biological target: T1, ATP-dependent translocase ABCB1 (Homo sapiens, UniProt P08183, T199C); assay: Increase in ATPase activity of human histidine-tagged Pgp TM3 mutant T199C expressed in HEK293 cells at 2 mM relative to control; conditions: hek293, 2000 µM
T1 sequence (P08183 whole entry T199C): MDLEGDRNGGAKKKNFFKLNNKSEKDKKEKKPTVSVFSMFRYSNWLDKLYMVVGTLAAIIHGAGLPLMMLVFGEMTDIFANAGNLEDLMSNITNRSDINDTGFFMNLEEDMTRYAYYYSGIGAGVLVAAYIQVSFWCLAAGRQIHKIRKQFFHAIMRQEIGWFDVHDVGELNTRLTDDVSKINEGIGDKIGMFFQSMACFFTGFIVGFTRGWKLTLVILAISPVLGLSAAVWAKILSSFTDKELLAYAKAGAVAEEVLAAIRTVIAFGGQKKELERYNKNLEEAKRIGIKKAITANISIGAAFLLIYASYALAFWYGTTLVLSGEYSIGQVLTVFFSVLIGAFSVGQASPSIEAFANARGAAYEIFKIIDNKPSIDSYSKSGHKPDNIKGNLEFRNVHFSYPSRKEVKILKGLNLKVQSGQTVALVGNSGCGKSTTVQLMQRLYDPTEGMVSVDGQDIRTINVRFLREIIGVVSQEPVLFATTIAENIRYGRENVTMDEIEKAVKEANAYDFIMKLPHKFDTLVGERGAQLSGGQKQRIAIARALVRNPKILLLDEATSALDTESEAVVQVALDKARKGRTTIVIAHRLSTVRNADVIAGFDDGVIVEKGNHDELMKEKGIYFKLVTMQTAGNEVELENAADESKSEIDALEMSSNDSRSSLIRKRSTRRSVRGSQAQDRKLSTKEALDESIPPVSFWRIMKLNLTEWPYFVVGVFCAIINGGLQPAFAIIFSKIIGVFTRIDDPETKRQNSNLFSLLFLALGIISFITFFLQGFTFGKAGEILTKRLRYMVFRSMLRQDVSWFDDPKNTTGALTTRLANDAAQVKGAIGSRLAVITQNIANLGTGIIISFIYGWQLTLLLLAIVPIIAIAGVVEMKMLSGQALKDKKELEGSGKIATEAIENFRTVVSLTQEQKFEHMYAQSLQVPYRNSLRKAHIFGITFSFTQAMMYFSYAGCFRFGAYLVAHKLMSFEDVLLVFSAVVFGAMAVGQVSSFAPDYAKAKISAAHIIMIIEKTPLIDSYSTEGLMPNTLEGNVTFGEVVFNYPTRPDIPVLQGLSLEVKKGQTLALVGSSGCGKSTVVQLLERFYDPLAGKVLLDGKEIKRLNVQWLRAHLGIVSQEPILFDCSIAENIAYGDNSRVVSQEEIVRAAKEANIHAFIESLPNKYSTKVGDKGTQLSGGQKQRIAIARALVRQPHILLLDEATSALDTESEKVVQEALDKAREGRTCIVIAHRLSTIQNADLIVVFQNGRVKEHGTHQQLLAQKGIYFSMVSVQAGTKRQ

[11] = biological target: ATP-dependent translocase ABCB1 (Homo sapiens, UniProt P08183, A198C); assay: Increase in ATPase activity of human histidine-tagged Pgp TM3 A198C mutant expressed in HEK293 cells at 2 mM relative to control; conditions: hek293, 2000 µM
[12] = biological target: ATP-dependent translocase ABCB1 (Homo sapiens, UniProt P08183, G203C); assay: Increase in ATPase activity of human histidine-tagged Pgp TM3 G203C mutant expressed in HEK293 cells at 2 mM relative to control; conditions: hek293, 2000 µM
Sequence of ATP-dependent translocase ABCB1 (Homo sapiens, UniProt P08183, G203C) (P08183 whole entry G203C): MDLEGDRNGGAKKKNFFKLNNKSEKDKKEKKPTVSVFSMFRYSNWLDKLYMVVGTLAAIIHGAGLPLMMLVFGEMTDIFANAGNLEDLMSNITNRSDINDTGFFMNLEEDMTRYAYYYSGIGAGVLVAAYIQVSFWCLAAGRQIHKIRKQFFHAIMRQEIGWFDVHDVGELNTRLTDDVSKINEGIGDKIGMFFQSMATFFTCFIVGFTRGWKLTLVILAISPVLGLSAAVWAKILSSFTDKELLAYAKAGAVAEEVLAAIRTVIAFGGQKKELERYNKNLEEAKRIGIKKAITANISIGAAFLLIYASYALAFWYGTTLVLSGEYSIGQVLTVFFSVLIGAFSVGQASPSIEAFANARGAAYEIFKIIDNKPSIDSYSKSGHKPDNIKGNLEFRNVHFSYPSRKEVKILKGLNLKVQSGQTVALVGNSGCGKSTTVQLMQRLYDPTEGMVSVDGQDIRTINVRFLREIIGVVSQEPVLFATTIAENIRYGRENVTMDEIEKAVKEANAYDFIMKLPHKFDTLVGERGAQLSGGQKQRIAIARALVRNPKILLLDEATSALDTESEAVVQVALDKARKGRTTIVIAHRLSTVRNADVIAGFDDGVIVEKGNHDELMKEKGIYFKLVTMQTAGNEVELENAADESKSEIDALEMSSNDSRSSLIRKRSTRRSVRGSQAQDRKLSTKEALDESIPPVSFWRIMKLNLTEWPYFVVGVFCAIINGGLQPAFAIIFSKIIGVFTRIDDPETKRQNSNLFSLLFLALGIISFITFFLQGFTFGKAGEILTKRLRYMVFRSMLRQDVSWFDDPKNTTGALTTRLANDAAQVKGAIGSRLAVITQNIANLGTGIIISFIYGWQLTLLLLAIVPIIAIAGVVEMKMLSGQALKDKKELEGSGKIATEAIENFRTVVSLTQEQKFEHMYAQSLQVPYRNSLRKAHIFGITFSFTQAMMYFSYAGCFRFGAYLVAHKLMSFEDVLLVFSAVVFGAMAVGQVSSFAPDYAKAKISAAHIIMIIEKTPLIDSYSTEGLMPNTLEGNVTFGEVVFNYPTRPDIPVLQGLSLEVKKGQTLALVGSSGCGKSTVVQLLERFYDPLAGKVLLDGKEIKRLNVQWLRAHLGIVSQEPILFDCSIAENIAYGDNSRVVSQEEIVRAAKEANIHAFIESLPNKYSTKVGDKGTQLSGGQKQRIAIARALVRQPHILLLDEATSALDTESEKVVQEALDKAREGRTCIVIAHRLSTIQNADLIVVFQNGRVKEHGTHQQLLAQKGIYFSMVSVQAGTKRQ

[13] = biological target: ATP-dependent translocase ABCB1 (Homo sapiens, UniProt P08183, F194C); assay: Increase in ATPase activity of human histidine-tagged Pgp TM3 F194C mutant expressed in HEK293 cells at 2 mM relative to control; conditions: hek293, 2000 µM
[14] = biological target: ATP-dependent translocase ABCB1 (Homo sapiens, UniProt P08183, I205C); assay: Increase in ATPase activity of human histidine-tagged Pgp TM3 I205C mutant expressed in HEK293 cells at 2 mM relative to control; conditions: hek293, 2000 µM
[15] = biological target: T1, ATP-dependent translocase ABCB1; assay: Activation of ATPase activity of human histidine-tagged Pgp TM3 T199C mutant expressed in HEK293 cells assessed as drug level causing half-maximal activation; conditions: read-out: Activity
[16] = biological target: T2, ATP-dependent translocase ABCB1 (Homo sapiens, UniProt P08183, C137A/C431A/C717A/C956A/C1074A/C1125A/C1227A); assay: Increase in ATPase activity of human histidine-tagged Pgp Cys-less mutant expressed in HEK293 cells at 2 mM relative to control; conditions: hek293, 2000 µM
T2 sequence (P08183 whole entry C137A/C431A/C717A/C956A/C1074A/C1125A/C1227A): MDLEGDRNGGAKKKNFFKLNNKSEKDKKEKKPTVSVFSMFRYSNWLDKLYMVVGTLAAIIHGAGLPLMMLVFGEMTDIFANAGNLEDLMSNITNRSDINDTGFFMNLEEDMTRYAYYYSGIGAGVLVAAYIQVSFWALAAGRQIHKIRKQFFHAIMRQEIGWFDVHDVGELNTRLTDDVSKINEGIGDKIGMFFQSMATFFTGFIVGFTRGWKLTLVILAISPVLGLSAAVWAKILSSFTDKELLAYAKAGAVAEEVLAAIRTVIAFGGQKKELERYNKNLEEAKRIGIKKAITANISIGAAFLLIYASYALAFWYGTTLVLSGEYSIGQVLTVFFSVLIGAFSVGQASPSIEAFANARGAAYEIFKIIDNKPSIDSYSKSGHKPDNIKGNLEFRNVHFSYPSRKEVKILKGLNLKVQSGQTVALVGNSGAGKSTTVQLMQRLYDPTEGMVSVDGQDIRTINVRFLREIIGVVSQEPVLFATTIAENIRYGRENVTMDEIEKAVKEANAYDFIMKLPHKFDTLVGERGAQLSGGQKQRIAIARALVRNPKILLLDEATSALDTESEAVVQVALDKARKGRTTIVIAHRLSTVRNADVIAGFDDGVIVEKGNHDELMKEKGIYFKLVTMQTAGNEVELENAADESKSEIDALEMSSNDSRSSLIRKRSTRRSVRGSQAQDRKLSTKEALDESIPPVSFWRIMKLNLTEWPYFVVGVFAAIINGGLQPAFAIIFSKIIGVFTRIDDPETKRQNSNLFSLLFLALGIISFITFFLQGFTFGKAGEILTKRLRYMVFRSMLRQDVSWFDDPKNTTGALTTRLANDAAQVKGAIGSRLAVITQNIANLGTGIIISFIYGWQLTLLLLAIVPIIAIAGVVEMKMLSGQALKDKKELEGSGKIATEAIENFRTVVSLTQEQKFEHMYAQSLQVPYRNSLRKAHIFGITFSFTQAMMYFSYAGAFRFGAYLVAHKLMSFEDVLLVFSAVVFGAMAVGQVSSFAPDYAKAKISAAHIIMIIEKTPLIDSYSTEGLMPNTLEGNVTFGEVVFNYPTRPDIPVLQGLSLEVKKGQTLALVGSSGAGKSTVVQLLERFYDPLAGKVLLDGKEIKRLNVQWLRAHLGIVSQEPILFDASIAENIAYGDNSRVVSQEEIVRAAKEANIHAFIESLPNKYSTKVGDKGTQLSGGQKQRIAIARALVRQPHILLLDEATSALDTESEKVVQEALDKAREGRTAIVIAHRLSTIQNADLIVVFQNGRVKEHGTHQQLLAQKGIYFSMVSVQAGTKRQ

[17] = biological target: ATP-dependent translocase ABCB1 (Homo sapiens, UniProt P08183, F201C); assay: Increase in ATPase activity of human histidine-tagged Pgp TM3 F201C mutant expressed in HEK293 cells at 2 mM relative to control; conditions: hek293, 2000 µM
[18] = biological target: ATP-dependent translocase ABCB1 (Homo sapiens, UniProt P08183, T202C); assay: Increase in ATPase activity of human histidine-tagged Pgp TM3 T202C mutant expressed in HEK293 cells at 2 mM relative to control; conditions: hek293, 2000 µM
[19] = biological target: ATP-dependent translocase ABCB1 (Homo sapiens, UniProt P08183, V206C); assay: Increase in ATPase activity of human histidine-tagged Pgp TM3 V206C mutant expressed in HEK293 cells at 2 mM relative to control; conditions: hek293, 2000 µM
[20] = biological target: ATP-dependent translocase ABCB1 (Homo sapiens, UniProt P08183, F193C); assay: Increase in ATPase activity of human histidine-tagged Pgp TM3 F193C mutant expressed in HEK293 cells at 2 mM relative to control; conditions: hek293, 2000 µM
[21] = biological target: T1, ATP-dependent translocase ABCB1; assay: Activation of ATPase activity of human histidine-tagged Pgp TM3 T199C mutant expressed in HEK293 cells assessed as drug level causing maximal activation
[22] = biological target: ATP-dependent translocase ABCB1 (Homo sapiens, UniProt P08183, M192C); assay: Increase in ATPase activity of human histidine-tagged Pgp TM3 M192C mutant expressed in HEK293 cells at 2 mM relative to control; conditions: hek293, 2000 µM
[23] = biological target: ATP-dependent translocase ABCB1 (Homo sapiens, UniProt P08183, G207C); assay: Increase in ATPase activity of human histidine-tagged Pgp TM3 G207C mutant expressed in HEK293 cells at 2 mM relative to control; conditions: hek293, 2000 µM
[24] = biological target: T2, ATP-dependent translocase ABCB1; assay: Activation of ATPase activity of human histidine-tagged Cys-less Pgp mutant expressed in HEK293 cells assessed as half maximal stimulation at 110 uM; conditions: hek293, 110 µM
[25] = biological target: ATP-dependent translocase ABCB1 (Homo sapiens, UniProt P08183, F204C); assay: Increase in ATPase activity of human histidine-tagged Pgp TM3 F204C mutant expressed in HEK293 cells at 2 mM relative to control; conditions: hek293, 2000 µM
[26] = biological target: ATP-dependent translocase ABCB1 (Homo sapiens, UniProt P08183, G191C); assay: Increase in ATPase activity of human histidine-tagged Pgp TM3 G191C mutant expressed in HEK293 cells at 2 mM relative to control; conditions: hek293, 2000 µM
[27] = biological target: ATP-dependent translocase ABCB1 (Homo sapiens, UniProt P08183, I190C); assay: Increase in ATPase activity of human histidine-tagged Pgp TM3 I190C mutant expressed in HEK293 cells at 2 mM relative to control; conditions: hek293, 2000 µM
[28] = biological target: ATP-dependent translocase ABCB1 (Homo sapiens, UniProt P08183, T209C); assay: Increase in ATPase activity of human histidine-tagged Pgp TM3 T209C mutant expressed in HEK293 cells at 2 mM relative to control; conditions: hek293, 2000 µM
[29] = biological target: ATP-dependent translocase ABCB1 (Homo sapiens, UniProt P08183, F208C); assay: Increase in ATPase activity of human histidine-tagged Pgp TM3 F208C mutant expressed in HEK293 cells at 2 mM relative to control; conditions: hek293, 2000 µM
[30] = biological target: ATP-dependent translocase ABCB1 (Homo sapiens, UniProt P08183, M197C); assay: Increase in ATPase activity of human histidine-tagged Pgp TM3 M197C mutant expressed in HEK293 cells at 2 mM relative to control; conditions: hek293, 2000 µM

`CCN(CC)c1ccc2c(-c3ccccc3C(=O)O)c3ccc(=[N+](CC)CC)cc-3oc2c1` gave an Activity [1] of 6.4, an IC50 [2] of 77 µM and an IC50 [3] of 320 µM. It also gave an IC50 [4] of 96 µM.
With `CCN(CC)c1ccc2c(-c3ccccc3C(C)=O)c3ccc(=[N+](CC)CC)cc-3oc2c1` the Activity (HEK293 [5]) was 88 µM and the Activity (HEK293 [6]) was 65 µM.
With `COc1ccc(CC[N+](C)(CCCC(C#N)(c2ccc(OC)c(OC)c2)C(C)C)CCSS(C)(=O)=O)cc1OC` (stereo not drawn) the Activity (HEK293 [7]) was “inactive”.
In the case of `CC[C@]1(O)C[C@@H]2CN(CCc3c([nH]c4ccccc34)[C@@](C(=O)OC)(c3cc4c(cc3OC)N(C)[C@H]3[C@@](O)(C(=O)OC)[C@H](OC(C)=O)[C@]5(CC)C=CCN6CC[C@]43[C@@H]65)C2)C1`, the Activity (HEK293 [5]) is reported as 0.7 µM and the Activity (HEK293 [6]) is reported as 40 µM.
For `CCN(CC)c1ccc2c(-c3ccc(S(=O)(=O)NCCSS(C)(=O)=O)cc3S(=O)(=O)O)c3ccc(=[N+](CC)CC)cc-3oc2c1.[Cl-]`, the Activity [8] was < 1.5, the Activity [9] was < 1.5 and the Activity [10] was < 6.7. The Activity [11] was < 1.5, the Activity [12] was < 1.5 and the Activity [13] was < 1.5. For the same compound, the Activity [14] was < 1.5, the EC50 [15] was 880 µM and the Activity [16] was < 1.5. The Activity [17] was < 1.5, the Activity [18] was < 1.5 and the Activity [1] was < 1.5. The Activity [19] was < 1.5, the Activity [20] was < 1.5 and the Activity [21] was 2 mM. The Activity [22] was < 1.5, the Activity [23] was < 1.5 and the Activity [24] was 6.2. For the same compound, the Activity [25] was < 1.5, the Activity [26] was < 1.5 and the Activity [27] was < 1.5. For the same compound, the Activity [28] was < 1.5, the Activity [29] was < 1.5 and the Activity [30] was < 1.5.
